From ChEMBL document CHEMBL1156829 (Proc Natl Acad Sci U S A, 2008)

Columns and labels:
Plasmodium falciparum [1] = experiment: NOVARTIS: Inhibition of Plasmodium falciparum W2 (drug-resistant) proliferation in erythrocyte-based infection assay; format: functional, organism-based; conditions: Plasmodium falciparum, W2; read-out: EC50
[2] = NOVARTIS: Cytotoxicity against human hepatocellular carcinoma cell line (Huh7); format: toxicity, cell-based, Huh-7; conditions: Huh7 cells (hepatocellular carcinoma cell line)
Plasmodium falciparum [3] = experiment: NOVARTIS: Inhibition of Plasmodium falciparum 3D7 (drug-susceptible) proliferation in erythrocyte-based infection assay; format: functional, organism-based; conditions: Plasmodium falciparum, 3D7

Compound | EC50 (Plasmodium falciparum [1]) [nM] | CC50 [2] [nM] | EC50 (Plasmodium falciparum [3]) [nM]
CCOC(=O)c1cnc2ccc(CC)cc2c1O | 525 | > 100000 | 716
Cc1cc(NCCN2CCCCC2)c2ccc3ccccc3c2n1 | 81 | 15600 | 44.1
Cc1nc2ccccc2c(O)c1CC=C(Cl)Cl | 514 | > 100000 | 498
CCOC(=O)C1=C(C)NC2=C(C(=O)C(C(=O)OCC)C(c3cccc(OC)c3)C2)C1c1cc(OC)c(OC)c(OC)c1 (configuration not stated) | 494 | > 100000 | 1090
CC(C)N(C)Cc1cc(-c2nc3ccccc3s2)ccc1O | 509 | > 100000 | 7870
CCCCCCCn1c(=N)n(CC(O)c2ccc(Cl)c(Cl)c2)c2ccccc21 (configuration not stated) | 33.5 | 6500 | 204
COc1cccc(NC(=O)c2ccc(NCCCN3CC(C)CC(C)C3)c([N+](=O)[O-])c2)c1 (configuration not stated) | 509 | > 100000 | 275
CCCCCCCCn1c(C)[n+](CC)c2cc(C(=O)OCC)ccc21 | 504 | > 100000 | 686
O=C(c1ccc2nc(N3CCCCC3)sc2c1)N1CCN(Cc2ccccc2)CC1 | 503 | > 100000 | 907
COc1ccccc1-n1c(C(C)N(C)C(=O)Nc2ccccc2F)nc2ccccc2c1=O (configuration not stated) | 62.3 | > 12400 | 162
O=C1Nc2ccccc2C12Nc1ccccc1-c1nc3ccccc3n12 (configuration not stated) | 502 | > 100000 | 1090
Cc1cc2c(cc1S(=O)(=O)N1CCCCC1C)OCC(=O)N2 (configuration not stated) | 505 | > 100000 | > 12500
CCC1CCCCN1CCCNC(=O)c1cn(CC)c(=O)c2cc(OC)c(OC)cc12 (configuration not stated) | 505 | > 100000 | 449
CC1=C(C(=O)Nc2ccc(C)cc2C)C(c2ccc([N+](=O)[O-])cc2)n2ncc(C(=O)Nc3ccc(F)cc3)c2N1 (configuration not stated) | 514 | > 100000 | 585
Cc1cc(C)cc(NC(=S)NCCO)c1 | 513 | > 100000 | 3860
COc1ccc(C(=O)C[n+]2ccc3c(c2)nc(-c2ccc(OC)cc2OC)n3C)cc1 | 512 | > 100000 | 920
CN(CCCNc1ccnc2cc(Cl)ccc12)C(=O)c1ccc(Br)cc1 | 13.4 | 2610 | 688
COc1ccccc1NC1=C(N2CCCCC2)C(=O)c2ccccc2C1=O | 40.1 | 7870 | 28
Oc1c(C(Nc2ccccn2)c2cccc(Oc3ccccc3)c2)ccc2cccnc12 (configuration not stated) | 320 | 62800 | 328
C=C[C@H]1CN2CC[C@H]1C[C@@H]2[C@@H](OC(=O)Cc1ccccc1)c1ccnc2ccccc12 | 51.7 | > 10000 | 49.4
O=C(C1CCC1)N1CCOc2c(cc(-c3csc4ccccc34)cc2OCCc2ccccn2)C1 | 515 | > 99600 | 754
O=[N+]([O-])c1cc(Cl)c(N2CCOCC2)cc1N1CCOCC1 | 515 | > 100000 | 1040
CN(C)CC(O)Cn1c2ccccc2c2ccccc21 (configuration not stated) | 275 | 52800 | > 11700
O=C1C=C(Nc2cccc(C(F)(F)F)c2)C(=O)c2ccccc21 | 519 | > 100000 | 549
c1cc(C2=NCCN2)ccc1OCCCOc1ccc(C2=NCCN2)cc1 | 51.8 | > 10000 | 5.58
CCOC(=O)c1ccc2nc(-c3ccccc3)cc(O)c2c1 | 493 | > 100000 | 549
O=C(C(Cc1c[nH]c2ccccc12)NS(=O)(=O)c1ccc(Cl)cc1)N1CCCCC1 (configuration not stated) | 488 | > 100000 | 719

Compound | EC50 (Plasmodium falciparum [1]) [nM] | CC50 [2] [nM] | EC50 (Plasmodium falciparum [3]) [nM]
Clc1ccc2[nH]c3c(NCCCN4CCOCC4)ncnc3c2c1 | 152 | 31200 | 109
N#Cc1c2c(c(NCc3ccccn3)n3c1nc1ccccc13)CCCC2 | 522 | > 100000 | 223
CN(C)[C@@H]1CCN(Cc2cccc(Cl)c2)C[C@@H]1CCC(=O)NCCCN1CCOCC1 | < 15.4 | > 2940 | 593
CCOC(=O)COc1ccc(C2NC(=S)NC(C)=C2C(C)=O)cc1OC (configuration not stated) | 496 | > 100000 | 4030
Cc1cc(C)n(-c2ccc(NC(=O)C3CCN(Cc4ccc5nonc5c4)CC3)cc2)n1 | 412 | > 83200 | 430
CSc1nnc(-c2cccc([N+](=O)[O-])c2)n1Cc1ccccc1 | 495 | > 100000 | 652
Clc1cccc(-c2cn3ccnc3c(N3CCN(c4ccncc4)CC3)n2)c1 | > 52.6 | > 10000 | > 1250
COc1ccc(C[n+]2cc(-c3ccc(Cl)cc3)n3ccccc32)cc1 | 524 | > 100000 | 413
COc1cccc(N2C(N)=NC(N)=NC2(C)C)c1 | 498 | > 100000 | 55.5
COc1ccc(C2c3[nH]c4ccccc4c3C[C@H]3C(=O)N(CCC(C)C)CC(=O)N23)cc1 (some centres not stated) | 497 | > 100000 | 3190
CCCCNC(=O)C(CC(C)C)N1C(=O)c2cc(NC(C)=O)ccc2NC(=O)[C@@H]1C (some centres not stated) | 67.2 | > 12800 | 28.2
Cc1cccc(N2C(=O)C3C(C2=O)C2(c4ccccc4)C(=O)C3(c3ccccc3)C(c3ccc4c(c3)OCO4)=C2c2ccc3c(c2)OCO3)c1 (configuration not stated) | 508 | > 100000 | 1070
N#Cc1c2c(c(N3CCN(C4CCCCC4)CC3)n3c1nc1ccccc13)CCC2 | 511 | > 100000 | 183
CCN(CC)C(=O)COc1ccc(-c2nnc(N3CCCCC3)c3ccccc23)cc1 | 508 | > 100000 | 1740
CCOC(=O)C1CCN(C(=O)CN2C(=O)c3ccccc3C2c2c[nH]c3ccccc23)CC1 (configuration not stated) | 513 | > 100000 | 519
Cc1cnc(C)c(-c2ccc(O)c(CNCC3(N4CCCCC4)CCCCC3)c2)n1 | 39.8 | > 7780 | 326
CCCCOc1ccc(C(=O)Nc2cc(C)on2)cc1 | 510 | > 100000 | 3160
COc1cc(C(=O)NC2CC3CCC(C2)N3C2CC2)cc(OC)c1OC (configuration not stated) | 487 | > 100000 | 450
Cc1cc(Nc2ccc([N+](=O)[O-])cc2O)nc2ccccc12 | 144 | 28000 | 357
C=CCOc1ccc(C2C(C(=O)OCC)=C(C)N=c3sc(=Cc4ccccc4O)c(=O)n32)cc1OCC (configuration not stated) | 263 | 53300 | 608
O=c1[nH]n(CC2COC(c3ccccc3)O2)c(=O)c2ccccc12 (configuration not stated) | 488 | > 100000 | 678
CCOC(=O)c1cnc2ccccc2c1Nc1ccc(C(C)=O)cc1 | 386 | > 73800 | 343
CCS/C(Cl)=C(/NC(=O)c1ccccc1)[P+](c1ccccc1)(c1ccccc1)c1ccccc1 | 52 | > 10000 | 110
CC1=C(C(=O)OC2CCCC2)C(c2ccc(Cl)cc2)C2=C(CC(c3ccc(Cl)cc3)CC2=O)N1 (configuration not stated) | 487 | > 100000 | 2590
N#CC(=Cc1ccc(Sc2ccccc2)o1)c1nc2ccccc2[nH]1 | 501 | > 100000 | 1050
CN(CCCNc1ccnc2cc(Cl)ccc12)C(=O)c1ccc(C(F)(F)F)cc1 | 319 | 64600 | 166
O=S(=O)(c1ccc(Cl)cc1)N1CCN(C(=S)NCc2ccco2)CC1 | 524 | > 100000 | 973
